PubChem BioAssay (NCI)
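Assay format: 96-well plates, 48-hour exposure. TGI: total growth inhibition.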

What was measured:
Assay in all cases: DTP human tumour cell line panel, 48 h
[1] = system: NCI-H522 lung
[2] = system: ACHN renal
[3] = system: COLO 205 colon
[4] = system: OVCAR-3 ovarian
[5] = system: NCI-H23 lung
[6] = system: U251 CNS
[7] = system: HCC-2998 colon
[8] = system: HCT-15 colon
[9] = system: PC-3 prostate
[10] = system: KM12 colon
[11] = system: HL-60(TB) leukemia
[12] = system: NCI/ADR-RES ovarian
[13] = system: SF-539 CNS

In the case of CN(C(=O)C12C3C4C1C1C2C3C41C(=O)O)C(C)(C)C (configuration not stated), the TGI [1] is reported as greater than 100 µM, the TGI [2] is reported as greater than 100 µM and the TGI [3] is reported as greater than 100 µM. The TGI [4] was greater than 100 µM, the TGI [5] was greater than 100 µM and the TGI [6] was greater than 100 µM. It also gave a TGI [7] greater than 100 µM, a TGI [8] greater than 100 µM and a TGI [9] greater than 100 µM. The TGI [10] was greater than 100 µM, the TGI [11] was greater than 100 µM and the TGI [12] was greater than 100 µM. It also gave a TGI [13] greater than 100 µM.

Compound CCCCCCCCCCCCOCCCCCCCCC/C=C/c1ccc2c(c1)OCCOCCOCCOCCO2 has a TGI [1] of 28.3 µM, a TGI [2] of 43.1 µM and a TGI [3] of 35.2 µM. For the same compound, the TGI [4] was 40.6 µM, the TGI [5] was 30.9 µM and the TGI [6] was 40.6 µM. The TGI [7] was 44.7 µM, the TGI [8] was greater than 100 µM and the TGI [9] was 39.9 µM. For the same compound, the TGI [10] was 31.1 µM, the TGI [11] was greater than 100 µM and the TGI [12] was 34.8 µM. It also gave a TGI [13] of 31.4 µM.

CC(C)(C)c1cc(C(C)(C)C)c(P=C(Cl)Cl)c(C(C)(C)C)c1 (configuration not stated) was tested, and the TGI [1] was greater than 100 µM, the TGI [2] was greater than 100 µM and the TGI [3] was greater than 100 µM. For the same compound, the TGI [4] was greater than 100 µM, the TGI [5] was greater than 100 µM and the TGI [6] was greater than 100 µM. It also gave a TGI [7] greater than 100 µM, a TGI [8] greater than 100 µM and a TGI [9] greater than 100 µM. For the same compound, the TGI [10] was greater than 100 µM, the TGI [11] was greater than 100 µM and the TGI [12] was greater than 100 µM. It also gave a TGI [13] greater than 100 µM.

Cc1cccc(/C=N/NC(=S)NC2CCCCC2)n1 showed a TGI [1] greater than 64.3 µM, a TGI [2] greater than 85.2 µM and a TGI [3] greater than 100 µM. For the same compound, the TGI [4] was greater than 29.3 µM, the TGI [5] was greater than 100 µM and the TGI [6] was greater than 87.8 µM. It also gave a TGI [7] greater than 89.5 µM, a TGI [8] greater than 100 µM and a TGI [9] greater than 100 µM. The TGI [10] was greater than 100 µM, the TGI [11] was greater than 44.5 µM and the TGI [12] was greater than 67.1 µM. For the same compound, the TGI [13] was 88.6 µM.

CC(C)C(=O)CC(Sc1ccc(N)cc1)c1ccccc1 (configuration not stated) gave a TGI [1] of 30.2 µM, a TGI [2] of 58.3 µM and a TGI [3] greater than 100 µM. The TGI [4] was 67.8 µM, the TGI [5] was 58.2 µM and the TGI [6] was 32.9 µM. It also gave a TGI [7] of 57.5 µM, a TGI [8] greater than 100 µM and a TGI [9] greater than 100 µM. The TGI [10] was greater than 100 µM, the TGI [11] was 49.2 µM and the TGI [12] was 99.6 µM. It also gave a TGI [13] of 63.5 µM.

For Cc1ccc(-n2nnc3c(NNc4ccccc4)n[nH]c(=O)c32)cc1, the TGI [1] was greater than 100 µM, the TGI [2] was greater than 100 µM and the TGI [3] was greater than 100 µM. It also gave a TGI [5] greater than 100 µM, a TGI [6] greater than 100 µM and a TGI [7] greater than 100 µM. It also gave a TGI [8] greater than 100 µM, a TGI [9] greater than 100 µM and a TGI [10] greater than 100 µM. It also gave a TGI [11] greater than 100 µM, a TGI [12] greater than 100 µM and a TGI [13] greater than 100 µM.

In the case of COc1ccc(C[C@H]2NC[C@H](OC(C)=O)[C@H]2OC(C)=O)cc1, the TGI [1] is reported as 0.289 µM, the TGI [2] is reported as 0.853 µM and the TGI [3] is reported as 0.311 µM. For the same compound, the TGI [4] was 0.85 µM, the TGI [5] was 0.94 µM and the TGI [6] was 1.6 µM. For the same compound, the TGI [7] was 0.357 µM, the TGI [8] was 0.975 µM and the TGI [9] was 1.08 µM. The TGI [10] was 1.46 µM, the TGI [11] was 0.326 µM and the TGI [12] was 0.788 µM. The TGI [13] was 10.4 µM.

With NS(=O)(=O)c1ccc(NC(=S)/N=C/c2c(O)c3ccccc3[nH]c2=O)cc1 the TGI [1] was greater than 100 µM, the TGI [2] was greater than 100 µM and the TGI [3] was greater than 100 µM. For the same compound, the TGI [4] was greater than 100 µM, the TGI [5] was greater than 100 µM and the TGI [6] was greater than 100 µM. The TGI [7] was greater than 100 µM, the TGI [8] was greater than 100 µM and the TGI [9] was greater than 100 µM. For the same compound, the TGI [10] was greater than 100 µM, the TGI [11] was 5.05 µM and the TGI [12] was greater than 100 µM. The TGI [13] was greater than 100 µM.

For N/C(=N\Nc1cccc(Cl)c1)c1cccnc1, the TGI [1] was greater than 100 µM, the TGI [2] was greater than 100 µM and the TGI [3] was greater than 72.1 µM. It also gave a TGI [4] greater than 86.3 µM, a TGI [5] greater than 100 µM and a TGI [6] greater than 100 µM. For the same compound, the TGI [7] was greater than 100 µM, the TGI [8] was greater than 100 µM and the TGI [9] was greater than 100 µM. For the same compound, the TGI [10] was greater than 100 µM, the TGI [11] was greater than 66.9 µM and the TGI [12] was greater than 100 µM. It also gave a TGI [13] greater than 60.8 µM.

Work on CC(C)/C(Cl)=N/OC(NC(=O)Nc1ccc(Cl)c(Cl)c1)(C(F)(F)F)C(F)(F)F yielded a TGI [1] of 3.31 µM, a TGI [2] of 24.9 µM and a TGI [3] of 9.27 µM. The TGI [4] was 11.3 µM, the TGI [5] was 38.2 µM and the TGI [6] was 33.2 µM. For the same compound, the TGI [7] was 36 µM, the TGI [8] was 28.9 µM and the TGI [9] was 27.3 µM. It also gave a TGI [10] of 36.1 µM, a TGI [11] of 6.39 µM and a TGI [12] of 31.7 µM. It also gave a TGI [13] of 33.2 µM.

With Nc1nc([O-])c([I+]c2ccccc2)c(=O)[nH]1 the TGI [1] was greater than 100 µM, the TGI [2] was greater than 100 µM and the TGI [3] was greater than 100 µM. The TGI [4] was greater than 100 µM, the TGI [5] was greater than 100 µM and the TGI [6] was greater than 100 µM. The TGI [7] was greater than 100 µM, the TGI [8] was greater than 100 µM and the TGI [9] was greater than 100 µM. The TGI [10] was greater than 100 µM, the TGI [11] was greater than 100 µM and the TGI [12] was greater than 100 µM. For the same compound, the TGI [13] was greater than 100 µM.

For Cc1ccc(/C(O)=C/c2nc3ccccc3nc2NC23CC4CC(CC(C4)C2)C3)cc1, the TGI [1] was greater than 10 µM, the TGI [2] was greater than 10 µM and the TGI [3] was greater than 10 µM. The TGI [4] was greater than 10 µM, the TGI [5] was greater than 10 µM and the TGI [6] was greater than 10 µM. The TGI [7] was greater than 10 µM, the TGI [8] was greater than 10 µM and the TGI [9] was greater than 10 µM. It also gave a TGI [10] greater than 10 µM, a TGI [11] greater than 10 µM and a TGI [12] greater than 10 µM. The TGI [13] was greater than 10 µM.

With COP(=N[Si](C)(C)C)(OC)OC the TGI [1] was greater than 100 µM, the TGI [2] was greater than 100 µM and the TGI [3] was greater than 100 µM. For the same compound, the TGI [4] was greater than 100 µM, the TGI [5] was greater than 100 µM and the TGI [6] was greater than 100 µM. The TGI [7] was greater than 100 µM, the TGI [8] was greater than 100 µM and the TGI [9] was greater than 100 µM. For the same compound, the TGI [10] was greater than 100 µM, the TGI [11] was greater than 100 µM and the TGI [12] was greater than 100 µM. The TGI [13] was greater than 100 µM.

N#Cc1cccc(Nc2ccccc2SSc2ccccc2Nc2cccc(C#N)c2)c1 was tested, and the TGI [1] was 12.2 µM, the TGI [2] was greater than 21.5 µM and the TGI [4] was greater than 21.5 µM. It also gave a TGI [5] greater than 21.5 µM, a TGI [6] of 12 µM and a TGI [7] greater than 21.5 µM. For the same compound, the TGI [8] was greater than 21.5 µM, the TGI [9] was 13.9 µM and the TGI [10] was 16.2 µM. The TGI [11] was 14.8 µM, the TGI [12] was 19.7 µM and the TGI [13] was 17.4 µM.

O=C1CSC2(CC(/C=C/c3cccc(Br)c3)=NN2c2cccc(S(=O)(=O)O)c2)N1c1nc2ccccc2s1 (configuration not stated) showed a TGI [1] greater than 100 µM, a TGI [2] greater than 100 µM and a TGI [3] greater than 100 µM. It also gave a TGI [4] greater than 100 µM, a TGI [5] greater than 100 µM and a TGI [6] greater than 100 µM. The TGI [7] was greater than 100 µM, the TGI [8] was greater than 100 µM and the TGI [9] was greater than 100 µM. For the same compound, the TGI [10] was greater than 100 µM, the TGI [12] was greater than 100 µM and the TGI [13] was greater than 100 µM.

In the case of c1ccc2c(c1)Sc1ccccc1N2CCCN1c2ccccc2Sc2ccccc21, the TGI [1] is reported as greater than 100 µM, the TGI [2] is reported as greater than 100 µM and the TGI [3] is reported as greater than 100 µM. For the same compound, the TGI [4] was greater than 100 µM, the TGI [5] was greater than 100 µM and the TGI [6] was greater than 100 µM. It also gave a TGI [7] greater than 100 µM, a TGI [8] greater than 100 µM and a TGI [9] greater than 100 µM. The TGI [10] was greater than 100 µM, the TGI [12] was greater than 100 µM and the TGI [13] was greater than 100 µM.

For Cc1cc(Cl)ccc1NC(=O)/C(Cc1nc2ccc(C(=O)c3ccccc3)cc2[nH]c1=O)=N/NC(=O)c1ccncc1, the TGI [1] was greater than 100 µM, the TGI [2] was greater than 100 µM and the TGI [4] was greater than 100 µM. For the same compound, the TGI [5] was greater than 100 µM, the TGI [6] was greater than 100 µM and the TGI [7] was greater than 100 µM. It also gave a TGI [8] greater than 100 µM, a TGI [9] greater than 100 µM and a TGI [10] greater than 100 µM. The TGI [11] was greater than 100 µM, the TGI [12] was greater than 100 µM and the TGI [13] was greater than 100 µM.

In the case of COC(=O)CC(SCCO)SCCO, the TGI [1] is reported as greater than 100 µM, the TGI [2] is reported as greater than 100 µM and the TGI [3] is reported as greater than 100 µM. For the same compound, the TGI [4] was greater than 100 µM, the TGI [5] was greater than 100 µM and the TGI [7] was greater than 100 µM. For the same compound, the TGI [9] was greater than 100 µM, the TGI [10] was greater than 100 µM and the TGI [11] was greater than 100 µM. For the same compound, the TGI [12] was greater than 100 µM and the TGI [13] was greater than 100 µM.
